Patent US20110306597A1, “Nicotinamide Derivatives” (priority 2008, published 2011)

target: human recombinant H-PGDS (Homo sapiens, UniProt O60760); assay: Fluorescence Intensity h-PGDS TBA Enzyme Assay; format: biochemical; conditions: 1:175,000 human recombinant H-PGDS, highest inhibitor concentration typically 1 μM
In short: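 Recombinant human H-PGDS preincubated 10 min at room temperature with inhibitor in 100 mM Tris pH 8.0, 100 μM MgCl2, 2.5 mM glutathione, 0.5% DMSO; 5.0 μM PGH2 added, stopped after 42 s with FeCl2/citric acid. Remaining PGH2 measured as MDA–TBA fluorescence (ex 530/em 565 nm); IC50 by 4-parameter fit, 11 concentrations.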

human recombinant H-PGDS, sequence (O60760 whole entry): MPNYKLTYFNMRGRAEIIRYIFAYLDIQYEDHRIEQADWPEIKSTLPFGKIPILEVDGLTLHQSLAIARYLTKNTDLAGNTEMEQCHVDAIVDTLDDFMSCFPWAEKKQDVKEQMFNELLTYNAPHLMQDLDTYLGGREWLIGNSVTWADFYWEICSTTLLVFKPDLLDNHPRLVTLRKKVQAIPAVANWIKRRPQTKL

| Compound | IC50 |
| --- | --- |
| COc1cccc(-c2ccc(C(=O)NCc3nnc(-c4cccnc4)[nH]3)cn2)c1 [Example 510, 6-(3-Methoxyphenyl)-N-[(5-pyridin-3-yl-4H-1,2,4-triazol-3-yl)methyl]nicotinamide] | 575 nM |
| COc1cccc(-c2ccc(C(=O)NCCN3CCCCC3)cn2)c1 [Example 511, 6-(3-methoxyphenyl)-N-(2-piperidin-1-ylethyl)nicotinamide] | ≥ 1000 nM |
| CC(C)[C@H](N)C(=O)NC(=O)c1ccc(-c2ccccc2)nc1 [Example 512, 6-Phenyl-N-L-valylnicotinamide] | 359 nM |
| O=C(NCc1ccc(Br)cc1)c1ccc(-c2ccccc2)nc1 [Example 513, N-(4-Bromobenzyl)-6-phenylnicotinamide] | 8.9 nM |
| O=C(NCc1nnc(-c2cccnc2)[nH]1)c1ccc(-c2ccccc2)nc1 [Example 514, 6-Phenyl-N-[(5-pyridin-3-yl-4H-1,2,4-triazol-3-yl)methyl]nicotinamide] | 5.2 nM |
| COc1ccc(NC(=O)c2ccc(-c3ccccc3)nc2)cc1OC [Example 515, N-(3,4-Dimethoxyphenyl)-6-phenylnicotinamide] | 0.95 nM |
| O=C(NCc1ccc(Cl)cc1)c1ccc(-c2ccccc2)nc1 [Example 517, N-(4-Chlorobenzyl)-6-phenylnicotinamide] | 11.8 nM |
| COc1ccc(CNC(=O)c2ccc(-c3ccccc3)nc2)cc1 [Example 519, N-(4-Methoxybenzyl)-6-phenylnicotinamide] | 8.3 nM |
| O=C(NCCNc1ccccc1)c1ccc(-c2ccccc2)nc1 [Example 520, N-(2-Anilinoethyl)-6-phenylnicotinamide] | 8.8 nM |
| O=C(NCc1ccc(Cl)c(Cl)c1)c1ccc(-c2ccccc2)nc1 [Example 522, N-(3,4-Dichlorobenzyl)-6-phenylnicotinamide] | 25 nM |
| COC(=O)c1ccc(CNC(=O)c2ccc(-c3ccccc3)nc2)cc1 [Example 523, Methyl 4-({[(6-phenylpyridin-3-yl)carbonyl]amino}methyl) benzoate] | 14.1 nM |
| O=C(NCc1nnc(-c2cccnc2)[nH]1)c1ccc(-c2cccc(F)c2)nc1 [Example 524, 6-(3-Fluorophenyl)-N-[(5-pyridin-3-yl-4H-1,2,4-triazol-3-yl)methyl]nicotinamide] | 9.36 nM |
| O=C(NCC1CCCCO1)c1ccc(-c2cccc(F)c2)nc1 (stereo not drawn) [Example 525, 6-(3-Fluorophenyl)-N-(tetrahydro-2H-pyran-2-ylmethyl)nicotinamide] | 68.5 nM |
| CC(C)[C@H](N)C(=O)NC(=O)c1ccc(-c2cccc(F)c2)nc1 [Example 526, 6-(3-Fluorophenyl)-N-L-valylnicotinamide] | 1510 nM |
| Cc1cccc(NC(=O)c2ccc(-c3ccccc3)nc2)c1C [Example 527, N-(2,3-Dimethylphenyl)-6-phenylnicotinamide] | 10.3 nM |
| O=C(NCC1COc2ccccc2C1)c1ccc(-c2cccc(F)c2)nc1 (stereo not drawn) [Example 528, N-(3,4-Dihydro-2H-chromen-3-ylmethyl)-6-(3-fluorophenyl)nicotinamide] | 6.45 nM |

| Compound | IC50 |
| --- | --- |
| Cc1ccc2c(c1)C(NC(=O)c1ccc(-c3cccc(F)c3)nc1)CC(C)(C)O2 (stereo not drawn) [Example 530, 6-(3-Fluorophenyl)-N-(2,2,6-trimethyl-3,4-dihydro-2H-chromen-4-yl)nicotinamide] | 3.03 nM |
| Cc1ccc2c(c1C)OCCC2NC(=O)c1ccc(-c2cccc(F)c2)nc1 (stereo not drawn) [Example 531, N-(7,8-Dimethyl-3,4-dihydro-2H-chromen-4-yl)-6-(3-fluorophenyl)nicotinamide] | 3.34 nM |
| Cc1cccc2c1OCCC2NC(=O)c1ccc(-c2cccc(F)c2)nc1 (stereo not drawn) [Example 532, 6-(3-Fluorophenyl)-N-(8-methyl-3,4-dihydro-2H-chromen-4-yl)nicotinamide] | 3.94 nM |
| Cc1cccc2c1OCCC2NC(=O)c1ccc(-c2cc(F)cc(F)c2)nc1 (stereo not drawn) [Example 533, 6-(3,5-Difluorophenyl)-N-(8-methyl-3,4-dihydro-2H-chromen-4-yl)nicotinamide] | 8.79 nM |
| O=C(NCC1C(=O)Nc2ccc(F)cc21)c1ccc(-c2cccc(F)c2)nc1 (stereo not drawn) [Example 534, N-[(5-Fluoro-2-oxo-2,3-dihydro-1H-indol-3-yl)methyl]-6-(3-fluorophenyl)nicotinamide] | 1.04 nM |
| Cc1ccc2c(c1)C(NC(=O)c1ccc(-c3cc(F)cc(F)c3)nc1)CC(C)(C)O2 (stereo not drawn) [Example 536, 6-(3,5-Difluorophenyl)-N-(2,2,6-trimethyl-3,4-dihydro-2H-chromen-4-yl)nicotinamide] | 53.5 nM |
| Cc1ccc2c(c1C)OCCC2NC(=O)c1ccc(-c2cc(F)cc(F)c2)nc1 (stereo not drawn) [Example 538, 6-(3,5-Difluorophenyl)-N-(7,8-dimethyl-3,4-dihydro-2H-chromen-4-yl)nicotinamide] | 30.1 nM |
| CC(C)(C)[C@@H](CO)NC(=O)c1ccc(-c2cccc(F)c2)nc1 [Example 539, 6-(3-Fluorophenyl)-N-[(1S)-1-(hydroxymethyl)-2,2-dimethylpropyl]nicotinamide] | 64.4 nM |
| COc1ccc(CNC(=O)c2ccc(-c3ccccc3)nc2)cc1OC [Example 540, N-(3,4-Dimethoxybenzyl)-6-phenylnicotinamide] | 5.41 nM |
| Cc1ccccc1CNC(=O)c1ccc(-c2cc(F)cc(F)c2)nc1 [Example 541, 6-(3,5-Difluorophenyl)-N-(2-methylbenzyl)nicotinamide] | 16.9 nM |
| O=C(NCC1COc2ccccc2C1)c1ccc(-c2cc(F)cc(F)c2)nc1 (stereo not drawn) [Example 542, 6-(3,5-Difluorophenyl)-N-(3,4-dihydro-2H-chromen-3-ylmethyl)nicotinamide] | 39.1 nM |
| COc1cc(F)cc(-c2ccc(C(=O)NCCCN3CCCC3=O)cn2)c1 [Example 543, 6-(3-Fluoro-5-methoxyphenyl)-N-[3-(2-oxopyrrolidin-1-yl)propyl]nicotinamide] | 104 nM |
| Cc1nc(CCNC(=O)c2cnc(-c3cccc(F)c3)c(Cl)c2)cs1 [Example 544, 5-Chloro-6-(3-fluorophenyl)-N-[2-(2-methyl-1,3-thiazol-4-yl)ethyl]nicotinamide] | 12 nM |
| COc1ccc(CNC(=O)c2cnc(-c3cccc(F)c3)c(Cl)c2)cc1OC [Example 545, 5-Chloro-N-(3,4-dimethoxybenzyl)-6-(3-fluorophenyl)nicotinamide] | 14.2 nM |
| O=C(NCc1nc2ccccc2s1)c1cnc(-c2cccc(F)c2)c(Cl)c1 [Example 546, N-(1,3-Benzothiazol-2-ylmethyl)-5-chloro-6-(3-fluorophenyl)nicotinamide] | 59.6 nM |
| O=C(NCC1COc2ccccc2C1)c1cnc(-c2cccc(F)c2)c(Cl)c1 (stereo not drawn) [Example 547, 5-Chloro-N-(3,4-dihydro-2H-chromen-3-ylmethyl)-6-(3-fluorophenyl)nicotinamide] | 98.4 nM |

Continued, values first:

| IC50 | Compound |
| --- | --- |
| 321 nM | O=C(NCc1ccccc1)c1ccc(-c2ccc(F)cc2)nc1 [Example 499, N-Benzyl-6-(4-fluorophenyl)nicotinamide] |
| ≥ 1000 nM | COC(=O)CNC(=O)c1ccc(-c2ccc(F)cc2)nc1 [Example 500, Methyl N-{[6-(4-fluorophenyl)pyridin-3-yl]carbonyl}glycinate] |
| ≥ 1000 nM | CC(C)[C@H](N)C(=O)NC(=O)c1ccc(-c2ccc(F)cc2)nc1 [Example 501, 6-(4-Fluorophenyl)-N-L-valylnicotinamide] |
| ≥ 1000 nM | CC(NC(=O)c1ccc(-c2ccc(F)cc2)nc1)c1ccncn1 (stereo not drawn) [Example 502, 6-(4-Fluorophenyl)-N-(1-pyrimidin-4-ylethyl) nicotinamide] |
| ≥ 1000 nM | CC(C)NC(=O)c1ccc(-c2ccc(F)cc2)nc1 [Example 503, 6-(4-Fluorophenyl)-N-isopropylnicotinamide] |
| 687 nM | CS(=O)(=O)c1ccc(CNC(=O)c2ccc(-c3ccc(F)cc3)nc2)cc1 [Example 504, 6-(4-Fluorophenyl)-N-[4-(methylsulfonyl)benzyl] nicotinamide] |
| ≥ 1000 nM | O=C(NCc1ccc(Br)cc1)c1ccc(-c2ccc(F)cc2)nc1 [Example 505, N-(4-Bromobenzyl)-6-(4-fluorophenyl)nicotinamide] |
| ≥ 1000 nM | CCOC(=O)CC(NC(=O)c1ccc(-c2ccc(F)cc2)nc1)c1ccc(OC)cc1 (stereo not drawn) [Example 506, Ethyl 3-({[6-(4-fluorophenyl)pyridin-3-yl]carbonyl}amino)-3-(4-methoxyphenyl)propanoate] |
| 578 nM | O=C(NCCc1cccs1)c1ccc(-c2ccc(F)cc2)nc1 [Example 507, 6-(4-Fluorophenyl)-N-[2-(2-thienyl)ethyl]nicotinamide] |
| 412 nM | O=C(NCCNc1ccccc1)c1ccc(-c2ccc(F)cc2)nc1 [Example 508, N-(2-Anilinoethyl)-6-(4-fluorophenyl)nicotinamide] |
| ≥ 1000 nM | COC(=O)[C@H](Cc1ccc(Cl)cc1)NC(=O)c1ccc(-c2ccc(F)cc2)nc1 [Example 509, Methyl 4-chloro-N-{[6-(4-fluorophenyl)pyridin-3-yl]carbonyl}phenylalaninate] |
| 31.9 nM | CC(NC(=O)c1ccc(-c2ccccc2)nc1)c1ccccc1 (stereo not drawn) [Example 516, 6-Phenyl-N-(1-phenylethyl)nicotinamide] |
| 17.5 nM | CSc1ccc(CNC(=O)c2ccc(-c3ccccc3)nc2)cc1 [Example 518, N-[4-(Methylthio)benzyl]-6-phenylnicotinamide] |
| 4.82 nM | O=C(Nc1ccc(F)cc1)c1ccc(-c2ccccc2)nc1 [Example 521, N-(4-Fluorophenyl)-6-phenylnicotinamide] |
| 5.56 nM | O=C(NCc1coc(-c2ccc(F)cc2)n1)c1ccc(-c2cccc(F)c2)nc1 [Example 535, 6-(3-Fluorophenyl)-N-{[2-(4-fluorophenyl)-1,3-oxazol-4-yl]methyl}nicotinamide] |
| 61.2 nM | CCC(C)C(CO)NC(=O)c1ccc(-c2cccc(F)c2)nc1 (stereo not drawn) [Example 537, 6-(3-Fluorophenyl)-N-[1-(hydroxymethyl)-2-methylbutyl]nicotinamide] |
